This is an account of results in BindingDB's records for doi:10.1021/acschembio.6b01129 (Promega Biosciences LLC, 2017).

Structures can show the parent of a compound that is named as a salt.

This assay has as its target Oplophorus-luciferin 2-monooxygenase catalytic subunit (Oplophorus gracilirostris, UniProt Q9GV45). Briefly: NanoLuc Inhibition Assay. As to the method:
NanoLuc enzyme was diluted to 0.4 ng/mL in CO2 independent media + 10% FBS to make the detection reagent. A 3× dilution series of each inhibitor was then made in the detection reagent. A "no inhibitor" control was also made for each sample. A total of 50 μL of each inhibitor dilution was mixed with 50 μL of NanoGlo buffer containing 20 μM furimazine (final furimazine concentration is 10 μM, which is atKM), and luminescence was measured. Each sample was normalized to the "no inhibitor" control.

Chain of Oplophorus-luciferin 2-monooxygenase catalytic subunit (Q9GV45 whole entry): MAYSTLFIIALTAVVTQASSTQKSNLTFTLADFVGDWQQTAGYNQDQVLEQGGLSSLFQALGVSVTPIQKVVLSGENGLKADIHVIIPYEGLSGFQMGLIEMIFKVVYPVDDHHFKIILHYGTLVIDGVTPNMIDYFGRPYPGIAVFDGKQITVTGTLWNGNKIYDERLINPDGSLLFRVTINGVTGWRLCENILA

Broadly, the IC50 is the concentration at which inhibition is half-maximal. High values mean lower potency, low ones higher potency. With `CCN(C(=O)Cn1c(C(=O)N[C@H]2CC[C@H](C(=O)OC)CC2)cc2sccc21)c1cccc(C(C)C)c1` (mixture of isomers) [Methyl trans-4-(4-(2-(ethyl(3-isopropylphenyl)amino)-2-oxoethyl)-4H-thieno[3,2-b]pyrrole-5carboxamido)cyclohexane-1-carboxylate (23)], half-maximal inhibition (IC50) was put at 130 nM.
Regarding `CCCCCCNC(=O)C1CCC(NC(=O)c2cc3sccc3n2CC(=O)N(CC)c2cccc(C)c2)CC1` (trans isomer) [4-(2-(Ethyl(m-tolyl)amino)-2-oxoethyl)-N-(trans-4-(hexylcarbamoyl)cyclohexyl)-4H-thieno[3,2b]pyrrole-5-carboxamide (38)], the half-maximal inhibitory concentration (IC50) is 160 nM.
For `CCN(C(=O)Cn1c(C(=O)NC2CCC(C(=O)NCCCC(=O)O)CC2)cc2sccc21)c1cccc(C)c1` (trans isomer) [4-(trans-4-(4-(2-(Ethyl(m-tolyl)amino)-2-oxoethyl)-4H-thieno[3,2-b]pyrrole-5carboxamido)cyclohexane-1-carboxamido)butanoic acid (37)] the value was 890 nM; for `CCN(C(=O)Cn1c(C(=O)NC2CCC(C(=O)NCCN(C)C)CC2)cc2sccc21)c1cccc(C)c1` (trans isomer) [N-(trans-4-((2-(dimethylamino)ethyl)carbamoyl)cyclohexyl)-4-(2-(ethyl(m-tolyl)amino)-2oxoethyl)-4H-thieno[3,2-b]pyrrole-5-carboxamide (36)], 17800 nM; for `CCN(C(=O)Cn1c(C(=O)NC2CCC(C(=O)NCCCCCCS(=O)(=O)O)CC2)cc2sccc21)c1cccc(C)c1` (trans isomer) [Sodium 6-(trans-4-(4-(2-(ethyl(m-tolyl)amino)-2-oxoethyl)-4H-thieno[3,2-b]pyrrole-5carboxamido)cyclohexane-1-carboxamido)hexane-1-sulfonate (43)], 71 nM.
For `CCN(C(=O)Cn1c(C(=O)NC2CCC(C(=O)NCCO)CC2)cc2sccc21)c1cccc(C)c1` (stereo not drawn) [4-(2-(Ethyl(m-tolyl)amino)-2-oxoethyl)-N-(trans-4-((2-hydroxyethyl)carbamoyl)cyclohexyl)-4Hthieno[3,2-b]pyrrole-5-carboxamide (35)] the value was 830 nM.
For `CCN(C(=O)Cn1c(C(=O)NC2CCC(C(=O)NCCCCCCO)CC2)cc2sccc21)c1cccc(C)c1` (stereo not drawn) [4-(2-(Ethyl(m-tolyl)amino)-2-oxoethyl)-N-(trans-4-((6-hydroxyhexyl)carbamoyl)cyclohexyl)4H-thieno[3,2-b]pyrrole-5-carboxamide (39)] the value was 30 nM; for `CCN(C(=O)Cn1c(C(=O)NC2CCC(C(=O)NCCCCCC(=O)O)CC2)cc2sccc21)c1cccc(C)c1` (stereo not drawn) [6-(trans-4-(4-(2-(Ethyl(m-tolyl)amino)-2-oxoethyl)-4H-thieno[3,2-b]pyrrole-5carboxamido)cyclohexane-1-carboxamido)hexanoic acid (41)], 94 nM; for `CCN(C(=O)Cn1c(C(=O)NC2CCC(C(=O)NCCCCCCCC(=O)O)CC2)cc2sccc21)c1cccc(C)c1` (stereo not drawn) [8-(trans-4-(4-(2-(Ethyl(m-tolyl)amino)-2-oxoethyl)-4H-thieno[3,2-b]pyrrole-5carboxamido)cyclohexane-1-carboxamido)octanoic acid (42)], 31 nM.
Compound `CCN(C(=O)Cn1c(C(=O)N[C@H]2CC[C@H](C(=O)NCCCCCCNC(=O)[C@H](CC(=O)O)NC(=O)[C@H](CC(=O)O)NC(=O)[C@H](CC(=O)O)NC(C)=O)CC2)cc2sccc21)c1cccc(C)c1` [(11S,14S,17S)-17-Acetamido-11,14-bis(carboxymethyl)-1-(trans-4-(4-(2-(ethyl(m-tolyl)amino)2-oxoethyl)-4H-thieno[3,2-b]pyrrole-5-carboxamido)cyclohexyl)-1,10,13,16-tetraoxo-2,9,12,15tetraazanonadecan-19-oic acid (46)] returned an IC50 of 66 nM.
Turning to `CCOC(=O)Cc1ccc(NC(=O)c2cc3sccc3n2CC(=O)N(CC)c2cccc(C)c2)cc1` [Ethyl 2-(4-(4-(2-(ethyl(m-tolyl)amino)-2-oxoethyl)-4H-thieno[3,2-b]pyrrole-5carboxamido)phenyl)acetate (12)], the IC50 came to 4700 nM.
For `CCN(C(=O)Cn1c(C(=O)Nc2cccc(C(=O)OC)c2)cc2sccc21)c1cccc(C)c1` [Methyl 3-(4-(2-(ethyl(m-tolyl)amino)-2-oxoethyl)-4H-thieno[3,2-b]pyrrole-5carboxamido)benzoate (11)] the value was 10700 nM; for `CCc1cccc(N(CC)C(=O)Cn2c(C(=O)N[C@H]3CC[C@H](C(=O)OC)CC3)cc3ccccc32)c1` [Methyl trans-4-(1-(2-(ethyl(3-ethylphenyl)amino)-2-oxoethyl)-1H-indole-2carboxamido)cyclohexane-1-carboxylate (33)], 5.4 nM; for `CCN(C(=O)Cn1c(C(=O)N[C@H]2CC[C@H](C(=O)OC)CC2)cc2ccccc21)c1cccc(C)c1` [Methyl trans-4-(1-(2-(ethyl(m-tolyl)amino)-2-oxoethyl)-1H-indole-2-carboxamido)cyclohexane1-carboxylate (29)], 36 nM.
For the compound `CCN(C(=O)Cn1cccc1C(=O)N[C@H]1CC[C@H](C(=O)OC)CC1)c1cccc(C)c1` [Methyl trans-4-(1-(2-(ethyl(m-tolyl)amino)-2-oxoethyl)-1H-pyrrole-2carboxamido)cyclohexane-1-carboxylate (28)], the IC50 stood at 7700 nM.
Turning to `CCN(C(=O)Cn1c(C(=O)N[C@H]2CC[C@H](C(=O)OC)CC2)cc2ccc(OC)cc21)c1cccc(C)c1` [Methyl trans-4-(1-(2-(ethyl(m-tolyl)amino)-2-oxoethyl)-6-methoxy-1H-indole-2carboxamido)cyclohexane-1-carboxylate (30)], inhibition was half-maximal at 3400 nM (IC50).
Under `COC(=O)[C@H]1CC[C@H](NC(=O)c2cc3sccc3n2CC(=O)N2CCCc3cc(C)ccc32)CC1` [Methyl trans-4-(4-(2-(6-methyl-3,4-dihydroquinolin-1(2H)-yl)-2-oxoethyl)-4Hthieno[3,2-b]pyrrole-5-carboxamido)cyclohexane-1-carboxylate (21)] stands 20200 nM; under `CCN(C(=O)Cn1c(C(=O)N[C@H]2CC[C@H](C(=O)OC)CC2)cc2sccc21)c1cccc(C(N)=O)c1` [Methyl trans-4-(4-(2-((3-carbamoylphenyl)(ethyl)amino)-2-oxoethyl)-4H-thieno[3,2-b]pyrrole5-carboxamido)cyclohexane-1-carboxylate (27)], 240 nM.
Under `CCN(C(=O)Cn1c(C(=O)N[C@H]2CC[C@H](C(=O)OC)CC2)cc2occc21)c1cccc(C)c1` [Methyl trans-4-(4-(2-(ethyl(m-tolyl)amino)-2-oxoethyl)-4H-furo[3,2-b]pyrrole-5carboxamido)cyclohexane-1-carboxylate (31)] stands 590 nM; under `CCN(C(=O)Cn1c(C(=O)N[C@H]2CC[C@H](C(=O)OC)CC2)cc2sccc21)c1ccccc1C` [Methyl trans-4-(4-(2-(ethyl(o-tolyl)amino)-2-oxoethyl)-4H-thieno[3,2-b]pyrrole-5carboxamido)cyclohexane-1-carboxylate (19)], 690 nM; under `CCN(C(=O)Cn1c(C(=O)N[C@H]2CC[C@@H](C(=O)OC)CC2)cc2sccc21)c1cccc(C)c1` [Methyl-cis-4-(4-(2-(ethyl(m-tolyl)amino)-2-oxoethyl)-4H-thieno[3,2-b]pyrrole-5carboxamido)cyclohexane-1-carboxylate (9)], 230 nM.
Under `CCN(C(=O)Cn1c(C(=O)N[C@H]2CC[C@H](C(=O)NCCCCCCNC(=O)c3ccc4c(c3)C3(OC4)c4ccc(O)cc4Oc4cc(O)ccc43)CC2)cc2sccc21)c1cccc(C)c1` [N-(trans-4-((6-(3',6'-dihydroxy-3-oxo-3H-spiro[isobenzofuran-1,9'-xanthene]-5(6)carboxamido)hexyl)carbamoyl)cyclohexyl)-4-(2-(ethyl(m-tolyl)amino)-2-oxoethyl)-4Hthieno[3,2-b]pyrrole-5-carboxamide (47)] stands 49 nM; under `CCN(C(=O)Cn1c(C(=O)NC2CCC(C(=O)NCCCCCCN)CC2)cc2sccc21)c1cccc(C)c1` (stereo not drawn) [N-(trans-4-((6-aminohexyl)carbamoyl)cyclohexyl)-4-(2-(ethyl(m-tolyl)amino)-2-oxoethyl)-4Hthieno[3,2-b]pyrrole-5-carboxamide hydrochloride (40)], 63 nM; under `CCCCNC(=O)C1CCC(NC(=O)c2cc3sccc3n2CC(=O)N(CC)c2cccc(C)c2)CC1` (stereo not drawn) [N-(trans-4-(butylcarbamoyl)cyclohexyl)-4-(2-(ethyl(m-tolyl)amino)-2-oxoethyl)-4H-thieno[3,2b]pyrrole-5-carboxamide (34)], 300 nM.
Take `COCCOCCN(C(=O)Cn1c(C(=O)NC2CCCCC2)cc2sccc21)c1cccc(C)c1` [N-cyclohexyl-4-(2-((2-(2-methoxyethoxy)ethyl)(m-tolyl)amino)-2-oxoethyl)-4H-thieno[3,2b]pyrrole-5-carboxamide (14)]: it took 16500 nM to reach half-maximal inhibition (IC50).
In turn, `CCCCCCN(C(=O)Cn1c(C(=O)NC2CCCCC2)cc2sccc21)c1cccc(C)c1` [N-cyclohexyl-4-(2-(hexyl(m-tolyl)amino)-2-oxoethyl)-4H-thieno[3,2-b]pyrrole-5-carboxamide (16)] had a half-inhibitory concentration (IC50) of 5600 nM.
On to `Cc1cccc(NC(=O)Cn2c(C(=O)NC3CCCCC3)cc3sccc32)c1` [N-cyclohexyl-4-(2-oxo-2-(m-tolylamino)ethyl)-4H-thieno[3,2-b]pyrrole-5-carboxamide (13)], for which the IC50 was 45200 nM.
Under `CCN(C(=O)Cn1c(C(=O)N2CCCCC2)cc2sccc21)c1cccc(C)c1` [N-ethyl-2-(5-(piperidine-1-carbonyl)-4H-thieno[3,2-b]pyrrol-4-yl)-N-(m-tolyl)acetamide (7)] stands 2600 nM; under `CCN(C(=O)Cn1c(C(=O)N2CCCC2)cc2sccc21)c1cccc(C)c1` [N-ethyl-2-(5-(pyrrolidine-1-carbonyl)-4H-thieno[3,2-b]pyrrol-4-yl)-N-(m-tolyl)acetamide (6)], 1200 nM.
